# Biological target: T1, androgen receptor (Homo sapiens, UniProt P10275)
# T1 sequence (P10275 1-920 Q868H): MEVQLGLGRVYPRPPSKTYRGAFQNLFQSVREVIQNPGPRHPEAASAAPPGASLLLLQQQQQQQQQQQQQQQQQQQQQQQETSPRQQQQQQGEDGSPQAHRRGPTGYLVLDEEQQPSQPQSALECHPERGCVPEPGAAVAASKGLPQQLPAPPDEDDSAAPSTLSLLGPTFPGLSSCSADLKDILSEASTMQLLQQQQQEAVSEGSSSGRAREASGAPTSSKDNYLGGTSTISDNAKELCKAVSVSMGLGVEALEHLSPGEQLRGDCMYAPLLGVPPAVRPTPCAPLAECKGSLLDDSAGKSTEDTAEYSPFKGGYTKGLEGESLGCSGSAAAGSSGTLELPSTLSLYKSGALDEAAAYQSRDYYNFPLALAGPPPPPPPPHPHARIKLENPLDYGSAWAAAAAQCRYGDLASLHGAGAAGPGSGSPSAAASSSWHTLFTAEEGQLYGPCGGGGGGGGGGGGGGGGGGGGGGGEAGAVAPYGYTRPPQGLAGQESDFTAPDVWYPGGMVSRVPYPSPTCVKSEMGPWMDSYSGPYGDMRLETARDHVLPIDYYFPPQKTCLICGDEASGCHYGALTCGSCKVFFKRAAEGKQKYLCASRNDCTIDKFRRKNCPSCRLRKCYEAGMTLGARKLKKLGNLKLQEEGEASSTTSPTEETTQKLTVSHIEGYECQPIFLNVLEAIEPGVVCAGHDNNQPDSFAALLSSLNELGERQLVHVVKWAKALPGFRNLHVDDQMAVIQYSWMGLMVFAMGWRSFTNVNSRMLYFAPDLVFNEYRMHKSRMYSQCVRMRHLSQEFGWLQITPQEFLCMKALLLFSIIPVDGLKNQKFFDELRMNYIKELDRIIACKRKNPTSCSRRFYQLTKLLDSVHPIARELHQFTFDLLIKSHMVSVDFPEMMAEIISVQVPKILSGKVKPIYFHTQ
# Test: AR Antagonist Cell Assay (MMTV-luciferase reporter, DHT-stimulated)
# Format: cell-based
# Settings: MDA-MB453-MMTV clone 54-19 cells; antagonism of 100 pM DHT, 17 hr, luciferase readout
# How it was run: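 MDA-MB453 cells stably carrying MMTV-ARE-firefly luciferase, in 1% charcoal-treated serum, preincubated 30 min with compound (10 uM or 1 uM) then stimulated with 100 pM DHT for 17 h at 37° C. Luminescence read; result as % inhibition of DHT fold induction.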
row,Compound,IC50
1,"O=c1cc(C(F)(F)F)c2cc(Cc3ccc(S(=O)(=O)N(Cc4ccccc4)Cc4ccccc4)cc3)ccc2[nH]1 [Example 11, N,N-Dibenzyl-4-(2-oxo-4-trifluoromethyl-1,2-dihydroquinolin-6-ylmethyl)benzenesulfonamide]",> 10 µM
2,"Cc1cccc(CNS(=O)(=O)c2ccc(Cc3ccc4[nH]c(=O)cc(C(F)(F)F)c4c3)cc2)c1 [Example 58, N-(3-Methylbenzyl)-4-(2-oxo-4-trifluoromethyl-1,2-dihydroquinolin-6-ylmethyl)-benzenesulfonamide]",> 10 µM
3,"O=c1cc(C(F)(F)F)c2cc(Cc3ccc(S(=O)(=O)Nc4cccc(-c5cnco5)c4)cc3)ccc2[nH]1 [Example 38, N-(3-Oxazol-5-ylphenyl)-4-(2-oxo-4-trifluoromethyl-1,2-dihydroquinolin-6-ylmethyl)benzenesulfonamide]",> 10 µM
4,"O=c1cc(C(F)(F)F)c2cc(Cc3ccc(S(=O)(=O)N[C@H]4CCCC[C@H]4OCc4ccccc4)cc3)ccc2[nH]1 [Example 93, N-(2-Benzyloxycyclohexyl)-4-(2-oxo-4-trifluoromethyl-1,2-dihydroquinolin-6-ylmethyl)-benzenesulfonamide]",> 10 µM
5,"CCOc1ccccc1CNS(=O)(=O)c1ccc(Cc2ccc3[nH]c(=O)cc(C(F)(F)F)c3c2)cc1 [Example 71, N-(2-Ethoxybenzyl)-4-(2-oxo-4-trifluoromethyl-1,2-dihydroquinolino-6-ylmethyl)-benzenesulfonamide]",> 10 µM
6,"O=c1cc(C(F)(F)F)c2cc(Cc3ccc(S(=O)(=O)Nc4cccc5c4OC(F)(F)C(F)(F)O5)cc3)ccc2[nH]1 [Example 47, 4-(2-Oxo-4-trifluoromethyl-1,2-dihydroquinolin-6-ylmethyl)-N-(2,2,3,3-tetrafluoro-2,3-dihydrobenzo[1,4]dioxin-5-yl)-benzenesufonamide]",> 10 µM
7,"Cc1ccc(-c2ccccc2)cc1NS(=O)(=O)c1ccc(Cc2ccc3oc(=O)cc(C(F)(F)F)c3c2)cc1 [Example 132, N-(4-Methylbiphenyl-3-yl)-4-(2-oxo-4-trifluoromethyl-2H-chromen-6-ylmethyl)-benzenesulfonamide]",8.13 µM
8,"O=c1cc(C(F)(F)F)c2cc(Cc3ccc(S(=O)(=O)NCc4c(F)ccc(F)c4Cl)cc3)ccc2o1 [Example 202, N-(2-Chloro-3,6-difluorobenzyl)-4-(2-oxo-4-trifluoromethyl-2H-chromen-6-ylmethyl)benzenesulfonamide]",4.42 µM
9,"CC(=O)c1cccc(NS(=O)(=O)c2ccc(Cc3ccc4[nH]c(=O)cc(C(F)(F)F)c4c3)cc2)c1 [Example 21, N-(3-Acetylphenyl)-4-(2-oxo-4-trifluoromethyl-1,2-dihydroquinolin-6-ylmethyl)benzenesulfonamide]",9.09 µM
10,"O=c1cc(C(F)(F)F)c2cc(Cc3ccc(S(=O)(=O)NC4CCc5ccccc54)cc3)ccc2o1 (centres unmarked) [Example 178, N-Indan-1-yl-4-(2-oxo-4-trifluoromethyl-2H-chromen-6-ylmethyl)benzenesulfonamide]",7.74 µM
11,"O=c1cc(C(F)(F)F)c2cc(Cc3ccc(S(=O)(=O)Nc4ccccc4)cc3)ccc2o1 [Example 113, 4-(2-Oxo-4-trifluoromethyl-2H-chromen-6-ylmethyl)-N-phenylbenzenesulfonamide]",0.72 µM
12,"CSc1n[nH]c(NS(=O)(=O)c2ccc(Cc3ccc4[nH]c(=O)cc(C(F)(F)F)c4c3)cc2)c1C#N [Example 32, N-(4-Cyano-5-methylsulfanyl-2H-pyrazol-3-yl)-4-(2-oxo-4-trifluoromethyl-1,2-dihydroquinolin-6-ylmethyl)-benzenesulfonamide]",8.02 µM
13,"O=c1cc(C(F)(F)F)c2cc(Cc3ccc(S(=O)(=O)NCCOc4ccccc4)cc3)ccc2o1 [Example 181, 4-(2-Oxo-4-trifluoromethyl-2H-chromen-6-ylmethyl)-N-(2-phenoxyethyl)-benzenesulfonamide]",6.96 µM
14,"O=c1cc(C(F)(F)F)c2cc(Cc3ccc(S(=O)(=O)NCCO)cc3)ccc2[nH]1 [Example 51, N-(2-Hydroxyethyl)-4-(2-oxo-4-trifluoromethyl-1,2-dihydroquinolin-6-ylmethyl)-benzenesulfonamide]",2.18 µM
15,"O=c1cc(C(F)(F)F)c2cc(Cc3ccc(S(=O)(=O)NCCN4CCOCC4)cc3)ccc2[nH]1 [Example 62, N-(2-Morpholin-4-ylethyl)-4-(2-oxo-4-trifluoromethyl-1,2-dihydroquinolin-6-ylmethyl)-benzenesulfonamide]",6.66 µM
16,"O=c1cc(C(F)(F)F)c2cc(Cc3ccc(S(=O)(=O)NC4CCN(Cc5ccccc5)CC4)cc3)ccc2o1 [Example 157, N-(1-Benzylpipendin-4-yl)-4-(2-oxo-4-trifluoromethyl-2H-chromen-6-ylmethyl)benzenesulfonamide]",6.09 µM
17,"COc1cc(NS(=O)(=O)c2ccc(Cc3ccc4[nH]c(=O)cc(C(F)(F)F)c4c3)cc2)cc(OC)c1 [Example 34, N-(3,5-Dimethoxyphenyl)-4-(2-oxo-4-trifluoromethyl-1,2-dihydroquinolin-6-ylmethyl)-benzenesulfonamide]",> 10 µM
18,"O=c1cc(C(F)(F)F)c2cc(Cc3ccc(S(=O)(=O)NCC(c4ccccc4)c4ccccc4)cc3)ccc2o1 [Example 206, N-(2,2-Diphenylethyl)-4-(2-oxo-4-trifluoromethyl-2H-chromen-6-ylmethyl)benzene-sulfonamide]",5.74 µM
19,"CCOC(=O)CC(NS(=O)(=O)c1ccc(Cc2ccc3[nH]c(=O)cc(C(F)(F)F)c3c2)cc1)c1ccccc1 (centres unmarked) [Example 91, 3-[4-(2-Oxo-4-trifiuoromethyl-1,2-dihydroquinolin-6-ylmethyl)-benzenesulfonylamino]-3-phenylpropionic acid ethyl ester]",> 10 µM
20,"Cc1ccccc1CNS(=O)(=O)c1ccc(Cc2ccc3oc(=O)cc(C(F)(F)F)c3c2)cc1 [Example 171, N-(2-Methylbenzyl)-4-(2-oxo-4-trifluoromethyl-2H-chromen-6-ylmethyl)benzenesulfonamide]",9.62 µM
21,"CC(C)(C)CCNS(=O)(=O)c1ccc(Cc2ccc3[nH]c(=O)cc(C(F)(F)F)c3c2)cc1 [Example 54, N-(3,3-Dimethylbutyl)-4-(2-oxo-4-trifluoromethyl-1,2-dihydroquinolin-6-ylmethyl)-benzenesulfonamide]",> 10 µM
22,"O=c1cc(C(F)(F)F)c2cc(Cc3ccc(S(=O)(=O)Nc4cccc(-c5cnco5)c4)cc3)ccc2o1 [Example 144, N-(3-Oxazol-5-ylphenyl)-4-(2-oxo-4-trifluoromethyl-2H-chromen-6-ylmethyl)-benzenesulfonamide]",2.17 µM
23,"O=c1cc(C(F)(F)F)c2cc(Cc3ccc(S(=O)(=O)N[C@H]4[C@@H]5CC[C@@H](C5)[C@H]4CO)cc3)ccc2[nH]1 (stereo in doubt) [Example 88, N-(3-Hydroxymethyl-bicyclo[2.2.1]hept-2-yl)-4-(2-oxo-4-trifluoromethyl-1,2-dihydroquinolin-6-ylmethyl)-benzenesulfonamide]",> 10 µM
24,CCCCCN(CCO)S(=O)(=O)c1ccc(Cc2ccc3oc(=O)cc(C(F)(F)F)c3c2)cc1 [Example 105],3.52 µM
25,"O=c1cc(C(F)(F)F)c2cc(Cc3ccc(S(=O)(=O)Nc4ccc5ncccc5c4)cc3)ccc2[nH]1 [Example 19, 4-(2-Oxo-4-trifluoromethyl-1,2-dihydroquinolin-6-ylmethyl)-N-quinolin-6-ylbenzenesulfonamide]",> 10 µM
26,"CCCCN(CCCC)S(=O)(=O)c1ccc(Cc2ccc3oc(=O)cc(C(F)(F)F)c3c2)cc1 [Example 97, N,N-Dibutyl-4-(2-oxo-4-trifluoromethyl-2H-chromen-6-ylmethyl)benzenesulfonamide]",6.23 µM
27,"Cc1ccc(F)c(CNS(=O)(=O)c2ccc(Cc3ccc4[nH]c(=O)cc(C(F)(F)F)c4c3)cc2)c1Cl [Example 84, N-(2-Chloro-6-fluoro-3-methylbenzyl)-4-(2-oxo-4-trifluoromethyl-1,2-dihydroquinolin-6-ylmethyl)-benzenesulfonamide]",> 10 µM
28,"COc1cccc(NS(=O)(=O)c2ccc(Cc3ccc4[nH]c(=O)cc(C(F)(F)F)c4c3)cc2)c1 [Example 50, N-(3-Methoxyphenyl)-4-(2-oxo-4-trifluoromethyl-1,2-dihydroquinolin-6-ylmethyl)-benzenesulfonamide]",> 10 µM
29,"CSc1ccccc1CNS(=O)(=O)c1ccc(Cc2ccc3[nH]c(=O)cc(C(F)(F)F)c3c2)cc1 [Example 73, N-(2-Methylsulfanylbenzyl)-4-(2-oxo-4-trifluoromethyl-1,2-dihydroquinolin-6-ylmethyl)-benzenesulfonamide]",> 10 µM

# Source: patent publication US7098340B2, “Benzyl sulfonamide derivatives” (Warner Lambert Company LLC, priority 2003, dated 2006)
